Results on 50 compounds are retold here after the NIST ThermoML archive (doi:10.1016/j.jct.2013.05.011).

A short description of data set [1]: activity coefficient (dimensionless); of the first substance listed, at infinite dilution; xn = mol fraction of the nth substance listed. The settings on record: 101 kPa, Liquid, Chromatography, x1 = 0.
Data set [2] is described as follows: refractive index (Na D-line) (dimensionless). The settings on record: 293.15 K; 101.33 kPa; Liquid; Standard Abbe refractometry.
The conditions of data set [3]: 288.15 K; 101.33 kPa; Liquid; Vibrating tube method.

Numbers after ± are expanded uncertainties.

Take `C=CCCCCC` [1-heptene] + OCCOCCO: the results for the activity coefficient in data set [1] (333.2 K), in data set [1] (348.2 K) and in data set [1] (363.2 K) were 72.3 ± 5, 66.6 ± 4.6 and 60.5 ± 4.1, respectively.
The like results for `C=CCCCCC` [1-heptene] + OCCOCCOCCO were, in that order, 34.4 ± 2.4, 30.6 ± 2.1 and 27.5 ± 1.9.
Regarding `C#CCCCCC` [1-heptyne] + OCCOCCO, the activity coefficient is 20.3 ± 1.4 in data set [1] (333.2 K), 20.8 ± 1.4 in data set [1] (348.2 K) and 19.3 ± 1.3 in data set [1] (363.2 K).
The corresponding values for `C#CCCCCC` [1-heptyne] + OCCOCCOCCO are 10.2 ± 0.7, 9.04 ± 0.62 and 8.99 ± 0.61.
For the compound `C#CCCCC` [1-hexyne] + OCCOCCO, the activity coefficient came to 14.1 ± 0.96 in data set [1] (333.2 K), 14.6 ± 1 in data set [1] (348.2 K) and 13.8 ± 0.94 in data set [1] (363.2 K).
`C#CCCCC` [1-hexyne] + OCCOCCOCCO: the activity coefficient came out at 7.01 ± 0.48 in data set [1] (333.2 K), 7.03 ± 0.48 in data set [1] (348.2 K) and 6.69 ± 0.46 in data set [1] (363.2 K).
The corresponding values for `C#CCCCCCC` [1-octyne] + OCCOCCO are 29.9 ± 2, 29.7 ± 2 and 27 ± 1.9.
Take `C#CCCCCCC` [1-octyne] + OCCOCCOCCO: the activity coefficient came out at 14.4 ± 0.98 in data set [1] (333.2 K), 12.8 ± 0.87 in data set [1] (348.2 K) and 12.2 ± 0.83 in data set [1] (363.2 K).
With `C=CCCC` [1-pentene] + OCCOCCO, the results for the activity coefficient in data set [1] (333.2 K), in data set [1] (348.2 K) and in data set [1] (363.2 K) were 35.3 ± 4.4, 32.9 ± 4.1 and 27.6 ± 3.4, respectively.
For the compound `C=CCCC` [1-pentene] + OCCOCCOCCO, the activity coefficient came to 17.5 ± 2.2 in data set [1] (333.2 K), 16.1 ± 2 in data set [1] (348.2 K) and 14.8 ± 1.8 in data set [1] (363.2 K).
For `C#CCCC` [1-pentyne] + OCCOCCO, the activity coefficient in data set [1] (333.2 K) was 9.93 ± 1.2; in data set [1] (348.2 K) it was 10.5 ± 1.3; in data set [1] (363.2 K), 10.2 ± 1.3.
The corresponding values for `C#CCCC` [1-pentyne] + OCCOCCOCCO are 5.07 ± 0.63, 5.11 ± 0.64 and 5.01 ± 0.62.
For the compound `c1ccccc1` [benzene] + OCCOCCO, the activity coefficient in data set [1] (333.2 K) stood at 7.33 ± 0.5; in data set [1] (348.2 K), 7.21 ± 0.49; in data set [1] (363.2 K), 7.05 ± 0.48.
For the compound `c1ccccc1` [benzene] + OCCOCCOCCO, the values for the activity coefficient in data set [1] (333.2 K), in data set [1] (348.2 K) and in data set [1] (363.2 K) were 3.91 ± 0.27, 3.86 ± 0.26 and 3.36 ± 0.23, respectively.
For `C1CCCCCC1` [cycloheptane] + OCCOCCO, the activity coefficient in data set [1] (333.2 K) was found to be 52.4 ± 3.6; in data set [1] (348.2 K), 47.4 ± 3.2; in data set [1] (363.2 K), 42.1 ± 2.9.
For the compound `C1CCCCCC1` [cycloheptane] + OCCOCCOCCO, the activity coefficient was found to be 29.6 ± 2 in data set [1] (333.2 K), 22.3 ± 1.5 in data set [1] (348.2 K) and 19.8 ± 1.4 in data set [1] (363.2 K).
Regarding `C1CCCCC1` [cyclohexane] + OCCOCCO, the results for the activity coefficient in data set [1] (333.2 K), in data set [1] (348.2 K) and in data set [1] (363.2 K) were 42.7 ± 2.9, 39.2 ± 2.7 and 34.9 ± 2.4, respectively.
In the case of `C1CCCCC1` [cyclohexane] + OCCOCCOCCO, the activity coefficient in data set [1] (333.2 K) stood at 21.1 ± 1.4; in data set [1] (348.2 K), 18.6 ± 1.3; in data set [1] (363.2 K), 16.8 ± 1.1.
`C1CCCCCCC1` [cyclooctane] + OCCOCCO: the values for the activity coefficient in data set [1] (333.2 K), in data set [1] (348.2 K) and in data set [1] (363.2 K) were 70.7 ± 4.8, 61.3 ± 4.2 and 52.2 ± 3.6, respectively.
Turning to `C1CCCCCCC1` [cyclooctane] + OCCOCCOCCO, the activity coefficient in data set [1] (333.2 K) was determined as 35.3 ± 2.4; in data set [1] (348.2 K), 27.2 ± 1.9; in data set [1] (363.2 K), 23.9 ± 1.6.
Take `C1CCCC1` [cyclopentane] + OCCOCCO: the activity coefficient in data set [1] (333.2 K) was 30.9 ± 2.1; in data set [1] (348.2 K), 27.6 ± 1.9; in data set [1] (363.2 K), 25.9 ± 1.8.
The like results for `C1CCCC1` [cyclopentane] + OCCOCCOCCO were, in that order, 15.2 ± 1, 14 ± 0.95 and 12.7 ± 0.87.
As to `OCCOCCO` [diethylene glycol], the refractive index in data set [2] is recorded as 1.4471 ± 0.0004. Besides, in data set [3], the mass density is 1120.05 ± 0.28 kg/m3.
`CCO` [ethanol] + OCCOCCO: the activity coefficient came out at 1.47 ± 0.1 in data set [1] (333.2 K), 1.46 ± 0.1 in data set [1] (348.2 K) and 1.46 ± 0.1 in data set [1] (363.2 K).
For the compound `CCO` [ethanol] + OCCOCCOCCO, the results for the activity coefficient in data set [1] (333.2 K), in data set [1] (348.2 K) and in data set [1] (363.2 K) were 1.18 ± 0.08, 1.15 ± 0.07 and 1.12 ± 0.07, respectively.
For `CCc1ccccc1` [ethylbenzene] + OCCOCCO, the activity coefficient came to 16.8 ± 1.1 in data set [1] (333.2 K), 16.1 ± 1.1 in data set [1] (348.2 K) and 15.2 ± 1 in data set [1] (363.2 K).
The like results for `CCc1ccccc1` [ethylbenzene] + OCCOCCOCCO were, in that order, 8.63 ± 0.59, 8.21 ± 0.56 and 7.86 ± 0.54.
Consider `CCCCCCC` [heptane] + OCCOCCO, for which the results for the activity coefficient in data set [1] (333.2 K), in data set [1] (348.2 K) and in data set [1] (363.2 K) were 131 ± 9, 122 ± 8.4 and 95.4 ± 6.5, respectively.
On to `CCCCCCC` [heptane] + OCCOCCOCCO, for which the activity coefficient was determined as 62.3 ± 4.3 in data set [1] (333.2 K), 52.3 ± 3.6 in data set [1] (348.2 K) and 43.7 ± 3 in data set [1] (363.2 K).
The like results for `C=CCCCC` [hex-1-ene] + OCCOCCO were, in that order, 50.7 ± 3.5, 47.3 ± 3.2 and 38.9 ± 2.7.
Consider `C=CCCCC` [hex-1-ene] + OCCOCCOCCO, for which the activity coefficient amounted to 24.6 ± 1.7 in data set [1] (333.2 K), 22.7 ± 1.6 in data set [1] (348.2 K) and 20.4 ± 1.4 in data set [1] (363.2 K).
The like results for `CCCCCC` [hexane] + OCCOCCO were, in that order, 95.7 ± 6.6, 84 ± 5.8 and 82.4 ± 5.6.
With `CCCCCC` [hexane] + OCCOCCOCCO, the activity coefficient in data set [1] (333.2 K) was 45.8 ± 3.1; in data set [1] (348.2 K) it was 40.3 ± 2.8; in data set [1] (363.2 K), 35.1 ± 2.4.
Turning to `CO` [methanol] + OCCOCCO, the activity coefficient in data set [1] (333.2 K) was found to be 0.988 ± 0.062; in data set [1] (348.2 K) it was 1.01 ± 0.06; in data set [1] (363.2 K), 1.02 ± 0.06.
Consider `CO` [methanol] + OCCOCCOCCO, for which the activity coefficient in data set [1] (333.2 K) was determined as 0.788 ± 0.051; in data set [1] (348.2 K) it was 0.787 ± 0.051.
With `CCCCCCCCC` [nonane] + OCCOCCO, the values for the activity coefficient in data set [1] (333.2 K), in data set [1] (348.2 K) and in data set [1] (363.2 K) were 264 ± 18, 230 ± 16 and 193 ± 13, respectively.
As to `CCCCCCCCC` [nonane] + OCCOCCOCCO, the figures for the activity coefficient in data set [1] (333.2 K), in data set [1] (348.2 K) and in data set [1] (363.2 K) were 137 ± 9.4, 98.9 ± 6.8 and 83.1 ± 5.7, respectively.
For the compound `C=CCCCCCC` [oct-1-ene] + OCCOCCO, the activity coefficient came to 101 ± 6.9 in data set [1] (333.2 K), 93.5 ± 6.4 in data set [1] (348.2 K) and 82.6 ± 5.7 in data set [1] (363.2 K).
The like results for `C=CCCCCCC` [oct-1-ene] + OCCOCCOCCO were, in that order, 55.9 ± 3.8, 41.8 ± 2.9 and 36.8 ± 2.5.
`CCCCCCCC` [octane] + OCCOCCO: the activity coefficient in data set [1] (333.2 K) turned out to be 188 ± 13; in data set [1] (348.2 K) it was 168 ± 12; in data set [1] (363.2 K) it was 146 ± 10.
With `CCCCCCCC` [octane] + OCCOCCOCCO, the figures for the activity coefficient in data set [1] (333.2 K), in data set [1] (348.2 K) and in data set [1] (363.2 K) were 103 ± 7.1, 74 ± 5.1 and 62.9 ± 4.3, respectively.
`CCCCC` [pentane] + OCCOCCO: the figures for the activity coefficient in data set [1] (333.2 K), in data set [1] (348.2 K) and in data set [1] (363.2 K) were 70.2 ± 8.7, 53.8 ± 6.7 and 54.2 ± 6.7, respectively.
In the case of `CCCCC` [pentane] + OCCOCCOCCO, the activity coefficient turned out to be 33.7 ± 4.2 in data set [1] (333.2 K), 30.8 ± 3.8 in data set [1] (348.2 K) and 23.2 ± 2.9 in data set [1] (363.2 K).
The corresponding values for `CCCO` [propan-1-ol] + OCCOCCO are 1.8 ± 0.12, 1.77 ± 0.12 and 1.74 ± 0.12.
As for `CCCO` [propan-1-ol] + OCCOCCOCCO, the activity coefficient in data set [1] (333.2 K) came out at 1.38 ± 0.09; in data set [1] (348.2 K) it was 1.34 ± 0.09; in data set [1] (363.2 K) it was 1.31 ± 0.09.
The corresponding values for `CC(C)O` [propan-2-ol] + OCCOCCO are 1.79 ± 0.12, 1.77 ± 0.12 and 1.74 ± 0.12.
In the case of `CC(C)O` [propan-2-ol] + OCCOCCOCCO, the activity coefficient in data set [1] (333.2 K) is 1.45 ± 0.1; in data set [1] (348.2 K) it was 1.4 ± 0.09; in data set [1] (363.2 K), 1.38 ± 0.09.
For the compound `Cc1ccccc1` [toluene] + OCCOCCO, the figures for the activity coefficient in data set [1] (333.2 K), in data set [1] (348.2 K) and in data set [1] (363.2 K) were 11.2 ± 0.77, 10.9 ± 0.75 and 10.5 ± 0.72, respectively.
Turning to `Cc1ccccc1` [toluene] + OCCOCCOCCO, the figures for the activity coefficient in data set [1] (333.2 K), in data set [1] (348.2 K) and in data set [1] (363.2 K) were 5.88 ± 0.4, 5.73 ± 0.39 and 5.55 ± 0.38, respectively.
Take `OCCOCCOCCO` [triethylene glycol]: the refractive index in data set [2] worked out at 1.4563 ± 0.0004. Besides, the mass density in data set [3] was found to be 1127.37 ± 0.15 kg/m3.

What is called refractive index is a measure of how strongly the sample bends light. The term mass density denotes the mass of a sample divided by its volume.
